Assay results from ChEMBL document CHEMBL4414675, “Cytotoxic 20,22-Dihydrodigitoxigenin Glycosides and Other Constituents of Vallaris glabra Stems” (J Nat Prod, 2019).
pIC50: −log10 of the molar value.

Legend:
[1] = tested on: HT-29; experiment: Cytotoxicity against human HT-29 cells assessed as reduction in cell viability by MTT assay; format: functional, cell-based
[2] = tested on: KB; experiment: Cytotoxicity against human KB cells assessed as reduction in cell viability by MTT assay; format: functional, cell-based
[3] = tested on: HeLa; experiment: Cytotoxicity against human HeLa cells assessed as reduction in cell viability by MTT assay; format: functional, cell-based
[4] = tested on: Vero; experiment: Cytotoxicity against African green monkey Vero cells assessed as reduction in cell viability by MTT assay; format: cell-based; details: Chlorocebus sabaeus
[5] = tested on: A549; experiment: Cytotoxicity against human A549 cells assessed as reduction in cell viability by MTT assay; format: functional, cell-based

| Compound | pIC50 [1] | pIC50 [2] | pIC50 [3] | pIC50 [4] | pIC50 [5] |
| --- | --- | --- | --- | --- | --- |
| CO[C@@H]1[C@@H](O)[C@H](O[C@H]2CC[C@@]3(C)[C@H](CC[C@@H]4[C@@H]3CC[C@]3(C)[C@@H]([C@H]5COC(=O)C5)CC[C@]43O)C2)O[C@@H](C)[C@@H]1O[C@@H]1O[C@H](CO)[C@@H](O)[C@H](O)[C@H]1O | 5.15 | 5.77 | 5.96 | 6.30 |  |
| CO[C@H]1[C@@H](O)[C@H](C)O[C@@H](O[C@H]2CC[C@@]3(C)[C@H](CC[C@@H]4[C@@H]3CC[C@]3(C)[C@@H]([C@H]5COC(=O)C5)CC[C@]43O)C2)[C@@H]1O | 5.39 | 5.72 | 5.03 | 5.04 |  |
| CO[C@H]1[C@@H](O)[C@H](O[C@H]2CC[C@@]3(C)[C@H](CC[C@@H]4[C@@H]3CC[C@]3(C)[C@@H]([C@H]5COC(=O)C5)CC[C@]43O)C2)O[C@@H](C)[C@@H]1O[C@@H]1O[C@H](CO)[C@@H](O)[C@H](O)[C@H]1O | < 5.00 | 5.18 | 5.21 | < 5.00 |  |
| CO[C@@H]1[C@@H](O)[C@H](C)O[C@@H](O[C@H]2CC[C@@]3(C)[C@H](CC[C@@H]4[C@@H]3CC[C@]3(C)[C@@H](C5=CC(=O)OC5)[C@@H](O)C[C@]43O)C2)[C@@H]1O | 6.70 | 5.77 | 7.10 | 5.89 |  |
| C[C@H]1[C@H](C)CC[C@]2(C(=O)O)CC[C@]3(COC(=O)/C=C/c4ccc(O)cc4)C(=CC[C@@H]4[C@@]5(C)CC[C@H](O)C(C)(C)[C@@H]5CC[C@]43C)[C@H]12 |  |  |  |  | 5.66 |
| CO[C@@H]1[C@@H](O[C@@H]2O[C@H](CO[C@@H]3O[C@H](CO)[C@@H](O)[C@H](O)[C@H]3O)[C@@H](O)[C@H](O)[C@H]2O)[C@H](C)O[C@@H](O[C@H]2CC[C@@]3(C)[C@H](CC[C@@H]4[C@@H]3CC[C@]3(C)[C@@H]([C@H]5COC(=O)C5)CC[C@]43O)C2)[C@@H]1OC(C)=O | < 5.00 | < 5.00 | < 5.00 | < 5.00 |  |
| CC1(C)CC[C@]2(C(=O)O)CC[C@]3(COC(=O)/C=C\c4ccc(O)cc4)C(=CC[C@@H]4[C@@]5(C)CC[C@H](O)C(C)(C)[C@@H]5CC[C@]43C)[C@@H]2C1 | 6.22 |  |  |  |  |
| CO[C@H]1[C@@H](O)[C@H](C)O[C@@H](O[C@H]2CC[C@@]3(C)[C@H](CC[C@@H]4[C@@H]3CC[C@]3(C)[C@@H](C5=CC(=O)OC5)[C@@H](O)C[C@]43O)C2)[C@@H]1O | 6.52 | 6.30 | 5.21 | 7.70 |  |
| CO[C@@H]1[C@@H](O)[C@H](O[C@H]2CC[C@@]3(C)[C@H](CC[C@@H]4[C@@H]3CC[C@]3(C)[C@@H](C5=CC(=O)OC5)[C@@H](O)C[C@]43O)C2)O[C@@H](C)[C@@H]1O[C@@H]1O[C@H](CO[C@@H]2O[C@H](CO)[C@@H](O)[C@H](O)[C@H]2O)[C@@H](O)[C@H](O)[C@H]1O | < 5.00 | < 5.00 | < 5.00 | < 5.00 |  |
| COc1cccc2c1C(=O)c1c(O)c3c(c(O)c1C2=O)C[C@@](O)(C(=O)CO)C[C@@H]3O[C@H]1C[C@H](N)[C@H](O)[C@H](C)O1 [DOXORUBICIN] | 6.05 | 6.70 | 6.85 | 5.89 |  |
| CO[C@@H]1[C@@H](O)[C@H](C)O[C@@H](O[C@H]2CC[C@@]3(C)[C@H](CC[C@@H]4[C@@H]3CC[C@]3(C)[C@@H]([C@H]5COC(=O)C5)CC[C@]43O)C2)[C@@H]1O | 6.70 | 7.52 | 6.30 | 6.22 |  |
| CO[C@H]1[C@@H](O)[C@H](O[C@H]2CC[C@@]3(C)[C@H](CC[C@@H]4[C@@H]3CC[C@]3(C)[C@@H](C5=CC(=O)OC5)[C@@H](O)C[C@]43O)C2)O[C@@H](C)[C@@H]1O[C@@H]1O[C@H](CO[C@@H]2O[C@H](CO)[C@@H](O)[C@H](O)[C@H]2O)[C@@H](O)[C@H](O)[C@H]1O | < 5.00 | < 5.00 | < 5.00 | < 5.00 |  |
| CO[C@H]1[C@@H](O)[C@H](O[C@H]2CC[C@@]3(C)[C@H](CC[C@@H]4[C@@H]3CC[C@]3(C)[C@@H]([C@H]5COC(=O)C5)CC[C@]43O)C2)O[C@@H](C)[C@@H]1O[C@@H]1O[C@H](CO[C@@H]2O[C@H](CO)[C@@H](O)[C@H](O)[C@H]2O)[C@@H](O)[C@H](O)[C@H]1O | < 5.00 | < 5.00 | < 5.00 | < 5.00 |  |
| C[C@H]1[C@H](C)CC[C@]2(C(=O)O)CC[C@]3(COC(=O)/C=C\c4ccc(O)cc4)C(=CC[C@@H]4[C@@]5(C)CC[C@H](O)C(C)(C)[C@@H]5CC[C@]43C)[C@H]12 |  |  | 5.21 |  |  |
